Measurements from paper PMC5515859, “Metabolism of F18, a Derivative of Calanolide A, in Human Liver Microsomes and Cytosol” (Frontiers in Pharmacology, 2017).

Columns and labels:
recombinant FMO5 = target: T1, recombinant FMO5 (Homo sapiens, UniProt P49326); assay: Metabolism of F18 by cDNA-expressed FMO5; type: in vitro ADME; details: F18 10 μM, 50 pmol/mL enzyme, 1 h
T1 construct: purchased BD Gentest (Woburn, MA, USA)
T1 sequence (P49326 1-533): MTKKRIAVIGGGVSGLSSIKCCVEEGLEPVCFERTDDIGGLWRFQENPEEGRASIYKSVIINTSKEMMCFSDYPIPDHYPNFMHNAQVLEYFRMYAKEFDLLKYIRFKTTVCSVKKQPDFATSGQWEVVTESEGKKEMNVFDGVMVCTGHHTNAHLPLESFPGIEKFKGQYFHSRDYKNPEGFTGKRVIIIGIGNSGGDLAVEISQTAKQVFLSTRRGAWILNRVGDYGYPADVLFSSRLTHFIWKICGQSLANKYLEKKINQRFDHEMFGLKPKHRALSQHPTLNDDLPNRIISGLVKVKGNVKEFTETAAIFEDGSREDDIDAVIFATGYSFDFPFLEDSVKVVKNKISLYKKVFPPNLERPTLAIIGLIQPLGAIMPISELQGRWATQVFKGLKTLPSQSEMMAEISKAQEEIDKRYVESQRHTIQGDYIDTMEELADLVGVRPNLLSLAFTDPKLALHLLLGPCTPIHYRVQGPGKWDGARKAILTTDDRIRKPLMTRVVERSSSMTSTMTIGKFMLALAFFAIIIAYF
Description: (§1) To further verify the roles of CYPs and FMOs in the metabolism of F18 in humans, F18 (10 μM) was incubated individually with 14 cDNA-expressed human CYP isozymes (50-pmol/mL CYP1A1, CYP1A2, CYP2A6, CYP2B6, CYP2C8, CYP2C9, CYP2C19, CYP2D6, CYP2E1, CYP2J2, CYP3A4, CYP4F2, CYP4F3, and CYP4A11) and three cDNA-expressed FMO enzymes (50-pmol/mL FMO1, FMO3, and FMO5). The incubation conditions were similar to those used for HLMs (described above), with the exception of the incubating time […]. Samples incubated without NADPH were used as the negative control.

[1] = Pharmacokinetics in rats after oral administration of F18; type: in vivo, Sprague-Dawley rats; details: oral F18 50 mg/kg; for Cmax / Tmax / half-life / MRT last / MRT inf: Sprague-Dawley; for Cmax / Tmax / half-life / MRT last / MRT inf / AUC0−∞ / Systemic exposure relative to that of the parent drug: rat blood; for Cmax / Tmax / half-life / MRT last / MRT inf / AUC0−∞: mean ± SD, n = 5; for MRT last: read-out: MRT0−t; for MRT inf: read-out: MRT0−∞; for Systemic exposure relative to that of the parent drug: from AUC0−∞
Description: To investigate the pharmacokinetic characteristics of F18 and its major metabolites, five rats were intragastrically administered F18 at a dose of 50 mg/kg. Blood samples were collected in heparinized ice-bath tubes from the suborbital veniplex at 0, 0.25, 0.5, 1, 2, 4, 6, 8, 12, 16, and 24 h postdose. The blood concentrations of F18 and its major metabolites were determined by LC-MS/MS and their pharmacokinetic parameters were calculated through non-compartmental analysis using WinNonlin Version 6.1 (Pharsight, Mountain View, CA, USA).
For the blood samples, F18, M1, M3-1, and M3-2 were simultaneously quantified using the following elution gradient: Solvent B was maintained at 15% for 2 min, increased to 85% in 1 min, maintained at 85% for 5 min, decreased to 15% in 0.5 min and maintained at 15% for 4.5 min. Detection was also performed using a Finnigan TSQ Quantum MS instrument with an electrospray ionization probe operated in the positive mode.
Calibration curves for F18 and its metabolites were fitted via linearly weighted (1/x^2) least-squares regression. The correlation coefficient values of F18 and its metabolites in the incubations were >0.99 for the range 10–5,000 nM; the LOQ was 10 nM with a signal-to-noise ratio >10:1; the accuracies were 90–113% and the precisions (RSD) were <10.5%. In the blood samples, the correlation coefficient values for F18, M1, M3-1, and M3-2 were >0.99 for the range 5–2,000 nM; the LOQ was 5 nM with the signal-to-noise ratio >10:1; the accuracies were 91–112% and the precisions (RSD) were <9.6%. In addition, no interference was found in the retention time of each analyte in both the incubated samples and the blood samples.

recombinant FMO1 = target: T2, recombinant FMO1 (Homo sapiens, UniProt Q01740); assay: Metabolism of F18 by cDNA-expressed FMO1; type: in vitro ADME; details: F18 10 μM, 50 pmol/mL enzyme, 1 h
T2 construct: purchased BD Gentest (Woburn, MA, USA)
T2 sequence (Q01740 1-532): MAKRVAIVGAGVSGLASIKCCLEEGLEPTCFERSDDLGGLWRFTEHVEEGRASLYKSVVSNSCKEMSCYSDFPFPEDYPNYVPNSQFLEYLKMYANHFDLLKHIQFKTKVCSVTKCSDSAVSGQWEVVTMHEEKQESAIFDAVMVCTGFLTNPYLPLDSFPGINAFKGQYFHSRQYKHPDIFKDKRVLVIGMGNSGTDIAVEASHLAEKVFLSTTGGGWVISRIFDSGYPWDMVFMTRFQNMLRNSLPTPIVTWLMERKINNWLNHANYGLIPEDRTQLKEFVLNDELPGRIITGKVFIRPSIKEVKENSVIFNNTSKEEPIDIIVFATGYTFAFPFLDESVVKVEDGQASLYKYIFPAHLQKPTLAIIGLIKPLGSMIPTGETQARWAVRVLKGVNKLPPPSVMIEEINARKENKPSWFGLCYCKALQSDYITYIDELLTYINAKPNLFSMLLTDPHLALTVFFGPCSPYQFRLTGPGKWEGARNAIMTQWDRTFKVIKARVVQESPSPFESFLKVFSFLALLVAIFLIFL
Description: as §1

Structure (SMILES)	Metabolite detected in incubation with recombinant FMO5 (recombinant FMO5)	Cmax [1] [nM]	Tmax [1] [h]	half-life [1] [h]	MRT last [1] [h]	MRT inf [1] [h]	Concentration in rat blood (in words) [1]	AUC0−∞ [1]	Systemic exposure relative to that of the parent drug [1] [%]	Metabolite detected in incubation with recombinant FMO1 (recombinant FMO1)
CCCc1cc(=O)oc2c3c(c4c(c12)OC(C)(C)C=C4)O[C@H](CCl)C[C@H]3O (relative stereo) [Metabolite M3-1, trans-12-hydroxy F18]	detected	165 ± 50.9	4 ± 2.3	3.4 ± 0.64	8.6 ± 0.6	8.9 ± 0.7	detected in high concentrations	1,965 h^*nM	~38	detected
CCCc1cc(=O)oc2c3c(c4c(c12)OC(C)(C)C=C4)OC(CO)CC3=O (centres unmarked) [Metabolite M1]	not detected	274 ± 111	4 ± 1.6	4.8 ± 2.1	8.4 ± 0.5	9.4 ± 1.5	detected in high concentrations	3,290 h^*nM	–	not detected
CCCc1cc(=O)oc2c3c(c4c(c12)OC(C)(C)C=C4)O[C@H](CCl)C[C@@H]3O (relative stereo) [Metabolite M3-2, cis-12-hydroxy F18]	detected	219 ± 51.2	4 ± 2.3	3 ± 0.4	8.8 ± 1.2	13.2 ± 7.2	detected in high concentrations	3,353 h^*nM	~65	detected
